According to patent US20150025131A1 (priority 2013, published 2015):
In brackets after ≈: the same amount, converted by molar mass. Entries after “also recorded” stand apart in the source; their conditions may differ. Where two headings read alike, the source gives them in different places.

Tests used:
IL-1β production = IL-1β production from PMA differentiated, LPS activated THP-1 cells (ELISA); type: cell-based; settings: Homo sapiens, 18 h, read-out: inhibition of IL-1β production (IC50)
Procedure: THP-1 (human monocytic leukemia) cells were maintained in RPMI-1640 supplemented with 10% FBS, 2 mmol/L glutamine, 5.5 mmol/L glucose, 50 μmol/L mercaptoethanol, 1 mmol/L sodium pyruvate, and 10 mmol/L HEPES and incubated at 37° C. in 5% CO2. Cells were grown in […] culture flask until they attained 70% confluency. Cells were then plated in 24-well tissue culture plates at a concentration of 2.5×10^5 cells/mL. Cells were differentiated into macrophages using PMA at a final concentration of 20 ng/mL and further incubated at 37° C. in 5% CO2 environment for 24 h. […] After addition of the compound cells were then incubated for 4 h for TNF-α production and 18 h for IL-1β production at 37° C. in 5% CO2. The supernatants were harvested and analyzed for the level of TNF-α and IL-1β, by human TNF-α and IL-1β Duo set ELISA kits, and according to the manufacturer's instructions.

[1] = MTT cytotoxicity assay, NIH 3T3; type: cell-based, mouse; settings: mouse, NIH 3T3 mouse embryo fibroblast cells, 48 h incubation, read-out: Cytotoxicity (IC50 μg/mL) NIH 3T3 cells
Procedure: (§1) Cell cytotoxicity assay was performed using three different cell lines NIH 3T3 (mouse embryo, fibroblast cells), CC1 (rat, epithelial, liver cell) and MDBK (bovine kidney) cells using MTT (3-[4,5-dimethylthiazole-2-yl]-2,5-diphenyl-tetrazolium bromide) colorimetric assay. Briefly 3T3 were grown in DMEM, supplemented with 10% of fetal bovine serum (FBS), and 1% penicillin-streptomycin whereas CC1 (rat epithelial liver cells) were cultured in EMEM, 2 mM Glutamine, 1% Non-Essential Amino Acids (NEAA), 20 mM HEPES, 10% Foetal Bovine Serum (FBS) and 1% penicillin-streptomycin, and MDBK cells were grown in 10% of fetal bovine serum (FBS) in 75 cm^2 flask, and incubated in 5% CO2 incubator at 37° C. until they attain 70% confluency. Cells were then harvested by centrifuging at 200 g for 5 min at 25° C., counted using heamocytometer and their concentration was adjusted to 6×10^4 cells/mL. 100 μL of Cells were then plated in 96 well plate and incubated overnight. Next day the supernatant was carefully removed and 200 μL of fresh medium was added with three different concentration of compound (1, 10, 50) μg/mL. […] The extent of MTT reduction to formazan within cells was calculated by measuring the absorbance at 540 nm; using a micro plate reader (Spectra Max plus 340, Molecular Devices, Calif., USA). […] The percent inhibition was calculated by using the following formula: […]

[2] = test system: NIH 3T3 mouse fibroblast cells; test: MTT cytotoxicity assay, NIH 3T3; type: cell-based
Procedure: as §1

[3] = test system: ROS production from PMA activated RAW. 267 cells (murine macrophages); test: Lucigenin enhanced (myeloperoxidase independent) oxidative burst; type: cell-based; settings: Mus musculus, Macrophage
Procedure: Intracellular effect was determined using human peripheral whole blood phagocytes and isolated neutrophils and from mice peritoneum macrophages, where luminol-enhanced chemillumenescence assay was applied. The effect on myeloperoxidase independent ROS production was determined using lucigenin on murine macrophages RAW.267 cells. […] Table 2. […] 267 cells (murine macrophages). DPI is used as standard drug. Reading presents mean±SD of three determinations.

serum IL-1β = test: Adjuvant induced arthritis model, serum IL-1β; type: in vivo, Sprague Dawley rats; settings: AIA rats, daily intraperitoneal; Patuletin 25 mg/kg, indomethacin 5 mg/kg
Procedure: (§2) All studies were carried out using Female Sprague Dawley (SD) rats weighing 150-250 gms. Animals were kept at 21±2° C. and on a 12-h light/dark cycle, received standardized pelleted diet and tap water. Experiments were performed under the ethical guidelines of the International Association for the study of pain in conscious animals. Each group contains 12 animals with randomly distributed weights into each treatment group.
(§3) Arthritis was induced by injecting freshly prepared 100 μL of 1 mg suspension of lyophilized Mycobacterium tuberculosis H37Ra (MT H37Ra; DIFCO Laboratories, Detroit, Mich., USA), subcutaneously at the rat tail base using sterile hypodermic needle. Inoculation was carried out under anesthesia with a combination of 20 mg/kg ketamine and 5 mg/kg xylazine, injected intraperitoneally. Compound and the reference drug were administered daily, intraperitoneally using sterile syringes. The positive control received vehicle (5% DMSO+PBS) or saline only; treatment groups received test compounds (25 mg/kg), whereas reference group received indomethacin (5 mg/kg). The doses of the test compounds were selected after preliminary dose finding studies. […]
The quantitative measurement of TNF-α and IL-1β was done in serum of all groups of animals including arthritic and non-arthritic using commercial ELISA assay kits (Abcam, USA) according to the manufacturer's instructions. […]

serum nitric oxide = test: Adjuvant induced arthritis model, serum nitric oxide; type: in vivo, Sprague Dawley rats; settings: AIA rats, daily intraperitoneal; Patuletin 25 mg/kg, indomethacin 5 mg/kg
Procedure: as §2
Arthritis was induced by injecting freshly prepared 100 μL of 1 mg suspension of lyophilized Mycobacterium tuberculosis H37Ra (MT H37Ra; DIFCO Laboratories, Detroit, Mich., USA), subcutaneously at the rat tail base using sterile hypodermic needle. […]
Peroxide (PO) and nitric oxide (NO), in serum were determined in the serum samples of both the normal and arthritic groups, using quantitative colorimetric assay kits, i.e., the Quantichrom ™ Nitric Oxide Assay Kit, and the Quantichrome™ Peroxide assay kit Diox-250 (BioAssay Systems, Hayward, Calif., USA). […] The samples were analyzed in duplicates using 96-well plate and the plate was read at 540 nm. The Quantichrome™ Peroxide assay kit Diox −250 system is an improved method which utilizes the oxidation of Fe^++ by peroxide present in the analyzed sample resulting in formation of purple complex that gives the accurate measure of peroxide level in the sample when read at 540-610 nm.

serum glutathione = test: Adjuvant induced arthritis model, serum glutathione; type: in vivo, Sprague Dawley rats; settings: AIA rats, daily intraperitoneal; Patuletin 25 mg/kg, indomethacin 5 mg/kg
Procedure: as §2
as §3, with “mg/kg).” for “mg/kg). The doses of the test compounds were selected after preliminary dose finding studies.”
The concentration of reduced form of glutathione was determined in serum using the colorimetric Quantichrome ™ Glutathione assay kit (Bioassay Systems) in duplicates, using 96 well plates and according to manufacturer's instructions. The OD recorded at 412 nm which directly represents the level of glutathione in serum.

rheumatoid factor = test: Adjuvant induced arthritis model, serum RA factor; type: in vivo, Sprague Dawley rats; settings: AIA rats, daily intraperitoneal; Patuletin 25 mg/kg, indomethacin 5 mg/kg
Procedure: as §2
Arthritis was induced by injecting freshly prepared 100 μL of 1 mg suspension of lyophilized Mycobacterium tuberculosis H37Ra (MT H37Ra; DIFCO Laboratories, Detroit, Mich., USA), subcutaneously at the rat tail base using sterile hypodermic needle. Inoculation was carried out under anesthesia with a combination of 20 mg/kg ketamine and 5 mg/kg xylazine, injected intraperitoneally. Compound and the reference drug were administered daily, intraperitoneally using sterile syringes. […]
Measurement of RA factor in rat serum was determined using Tina-quant RFII Kit (Roche Diagnostics, USA) and automated analyzers according to manufacturer's instructions. The test principle involves the reaction of latex bound heat inactivated IgG (antigen) with RF antibodies in the sample to form Ag/Ab complex resulting in agglutination which can be measured turbidimetrically.

COc1c(O)cc2oc(-c3ccc(O)c(O)c3)c(O)c(=O)c2c1O [Patuletin, 3,5,7,3′,4′-pentahydroxy-6-methoxy flavones]
IC50 (IL-1β production): > 50 µg/mL | IC50 at 48 h [1]: 36.4 ± 6.9 µg/mL (≈ 110 µM) | cytotoxicity on NIH 3T3 mouse fibroblast cells (in words) [2]: no cytotoxicity | IC50 ([3]; compared to DPI as standard drug, read-out: inhibition of extracellular ROS species (IC50), unit inferred): 0.3 µg/mL | IC50 ([3]; lucigenin enhanced, PMA activated RAW. 267 cells, read-out: Myeloperoxidase independent Oxidative Burst (IC50 μg/mL) on macrophages): 0.3 ± 0.03 µg/mL | level of IL-1β in serum versus arthritic control group (serum IL-1β): significant decrease; also recorded: marked decrease | level of nitric oxide in serum versus arthritic control group (serum nitric oxide): marked reduction; also recorded: significant decrease | level of glutathione in serum versus arthritic control group (serum glutathione): non-significant increase; also recorded: mild increase | level of RA factor (rheumatoid factor) in serum versus arthritic control group (rheumatoid factor): marked decrease
